Test results published in patent publication US11891371B2, “Piperonylic acid derivative and preparation and application thereof” (SHENYANG SINOCHEM AGROCHEMICALS R&D CO., LTD., priority 2017, dated 2024).
Read-outs that look alike come from different tables or passages of the source.

Tests used:
[1] = test system: armyworm; experiment: Determination of activity against armyworm (corn leaf dip, third instar, 72 h mortality); format: in vivo; details: foliar; for mortality at 0.1 µg/mL: read-out: Mortality rate (%) 0.1 mg/L
Description: (§1) According to the solubility of test compounds, the compounds are dissolved in acetone or dimethyl sulfoxide, and then diluted with 0.1% aqueous solution of Tween 80 to form a required concentration of 50 ml test liquid, The content of the acetone or the dimethyl sulfoxide in the total solution is not more than 10%.
The middle leaves of fresh corns were cut into small sections of 3 cm, and dipped into a solution of the required concentration of test compounds for 10 seconds. After dried in shade, the middle leaves were placed in a 9 cm diameter petri dish provided with filter paper. Fourteen regular healthy test insects (third instar) were put into the leaves. Four replicates were set for each treatment. The pure water treatment was set as control check. The treated discs were placed in a chamber of is 24° C., 60%-70% relative humidity and day light. After 72 hours, the number of surviving insects was investigated, and the mortality rate was calculated.

[2] = test system: adult spider mite; experiment: Determination of acaricidal activity against adult spider mite (bean leaf spray, 72 h mortality); format: in vivo; details: after 72 hours
Description: as §1, with “liquid.” for “liquid,”
The adult spider mites were put into two true leaves of bean plants. After the number of mites was investigated, the solution of certain concentrations of test compounds was sprayed by using a handheld Airbrush. Three replicates were set for each treatment. Then the leaves were maintained in a standard observation room. After 72 hours, the number of surviving mites was observed, and the mortality rate was calculated.

[3] = test system: beet armyworm; experiment: Determination of activity against beet armyworm (cabbage leaf disc spray, third instar, 96 h mortality); format: in vivo; details: after 96 hours
Description: as §1
The cabbage leaves were punched into circular leaf discs with a diameter of 1 cm by using a puncher. A certain concentration of test compound was sprayed on both sides of each leaf disc at a spray volume of 0.5 ml by a handheld Airbrush. After the leaf discs were dried in shade, 12 test insects (third instar) were put into the leaf discs. Three replicates were set for each treatment. The pure water treatment was set as control check. The treated discs were placed in a chamber of 24° C., 60%-70% relative humidity and day light. After 96 hours, the number of surviving insects was investigated, and the mortality rate was calculated. See Table 2 for parallel determination results of activity of compounds 1-8 and KC2 (compound 3-1 in U.S. Pat. No. 8,853,440B2) against beet armyworm.

[4] = test system: rice leaf folder; experiment: Determination of activity against rice leaf folder in field trial (foliar spray, 15 days mortality); format: in vivo; details: after 15 days
Description: A certain concentration of test compounds was sprayed on the leaf surfaces in the peak of the hatching period of the rice leaf folders, with a spray volume of 450 L per hectare. The area of a rice plot was 32 square meters. Three replicates were set for each treatment. After 15 days, the number of surviving rice leaf folders was investigated, and the mortality rate was calculated. See Table 3 for parallel determination results of activity of compounds I-8 and KC2 against rice leaf folder.

[5] = test system: housefly larva; experiment: Determination of activity against housefly larva (feed poisoning method, third instar, 72 h mortality); format: in vivo; details: after 72 hours
Description: Third instar housefly larvae were tested by a feed poisoning method. 1000 mg/L, of acetone solution of the test compounds was diluted into a required concentration of test liquid by using a certain concentration of milk powder emulsion according to a test design dose. The test liquid was uniformly added to a 6 cm diameter petri dish provided with filter paper by using a pipette, with 1 ml per dish. The third instar housefly larvae were put into the petri dish. Three replicates were set for each treatment. Then the petri dishes were maintained in a standard observation room. After 72 hours, the number of surviving housefly larvae was investigated, and the mortality rate was calculated. See Table 5 for parallel determination results of activity of compounds I-51 and KC2 against housefly larva.

[6] = test system: diamondback moth; experiment: Determination of activity against diamondback moth (cabbage leaf disc dip, second instar, 72 h mortality); format: in vivo; details: Plutella xylostella, foliar, 1 mg/L, read-out: mortality rates against diamondback moth
Description: as §1
The leaves of cabbage grown in greenhouse were selected, removed the surface waxy layers, punched into circular leaf discs with a diameter of 2 cm by using a puncher, and dipped into a solution of the required concentration of test compounds for 10 seconds. After dried in shade, the circular leaf discs were placed in a 9 cm diameter petri dish provided with filter paper. Ten regular healthy test insects (second instar) were put into the leaf discs. Four replicates were set for each treatment. The pure water treatment was set as control check. The treated discs were placed in a chamber of 24° C., 60%-70% relative humidity and day light. After 72 hours, the number of surviving insects was investigated, and the mortality rate was calculated.

[7] = test system: green peach aphid; experiment: Determination of activity against green peach aphid (cabbage leaf spray, 48 h mortality); format: in vivo; details: Myzus persicae, 10 mg/L, read-out: mortality rates against green peach aphid
Description: as §1
A layer of filter paper was covered on the bottom of the 6 cm diameter petri dish. To the petri dish, a proper amount of tap water was added dropwise for moisture retention. Cabbage leaves, on which 15-30 aphids exist, with a suitable size (about 3 cm in diameter) were cut from the cabbage plants breeding peach aphids. After winged aphids and the aphids on the front surface of the leaves were removed, the leaves were placed in the petri dish in a manner of backing on to the petri dish, and sprayed with a handheld Airbrush, with a pressure of 10 psi (about 0.7 kg/cm^2) and a spray volume of 0.5 ml, Three replicates were set for each treatment. After treatment, the cabbage leaves were placed in a standard observation room. After 48 hours, the number of surviving aphids was investigated, and the mortality rate was calculated.

[8] = test system: Spodoptera litura; details: 100 ppm; disclosed in WO2005073165A1, US2007275980A1, US20140206727A1; cited from earlier work
[9] = test system: Plutella xylostella; details: 100 ppm; disclosed in WO2005073165A1, US2007275980A1, US20140206727A1; cited from earlier work
[10] = 0.1 mg/L, armyworm, 72 hours, parallel determination
[11] = 0.3 mg/L, armyworm, 72 hours, parallel determination, read-out: Mortality rate (%) 0.3 mg/L
[12] = 0.3 mg/L, 72 hours, read-out: mortality rates against armyworm

SMILES | Mortality rate (%) ([2]; 10 mg/L) | Mortality rate (%) ([2]; 100 mg/L) | Mortality rate (%) ([2]; 600 mg/L) | mortality at 0.3 µg/mL [1, 12] [%] | mortality at 1 µg/mL [6] [%] | also measured
O=C(Nc1cccc(C(=O)Nc2c(Br)cc(C(F)(C(F)(F)F)C(F)(F)F)cc2Br)c1F)c1ccccc1 [KC3] | 0 | 0 | 0 |  |  | mortality at 0.1 µg/mL [1, 10]: 28.6%; mortality at 0.3 µg/mL [1, 11]: 64.3%
CN(C(=O)c1ccccc1)c1cccc(C(=O)Nc2c(Br)cc(C(F)(C(F)(F)F)C(F)(F)F)cc2C(F)(F)F)c1F [KC2, Broflanilide, reference compound] | 0 | 0 | 0 |  |  | Mortality rate (%) ([3]; 0.2 mg/L): 66.7%; Mortality rate (%) ([3]; 1 mg/L): 83.3%; Mortality rate (%) ([4]; 30 g/ha): 79%; Mortality rate (%) ([4]; 45 g/ha): 82%; Mortality rate (%) ([5]; 1 mg/L): 50%; Mortality rate (%) ([5]; 3 mg/L): 69.6%; Mortality rate (%) ([5]; 10 mg/L): 100%
O=C(Nc1cccc(C(=O)Nc2c(Br)cc(C(F)(C(F)(F)F)C(F)(F)F)cc2I)c1F)c1ccc2c(c1)OC(F)(F)O2 [Compound I-5, N-(2-bromo-6-iodo-4-perfluoroisopropylphenyl)-3-(2,2-difluoro-1,3-benzodioxole-5-carboxamido)-2-fluorobenzamide] |  |  |  | > 90 | > 90 | 
O=C(Nc1cccc(C(=O)Nc2c(Br)cccc2Br)c1F)c1ccc2c(c1)OC(F)(F)O2 [Compound C2] | 0 | 0 | 0 |  |  | 
CN(C(=O)c1ccc2c(c1)OC(F)(F)O2)c1cccc(C(=O)Nc2c(Br)cc(C(F)(C(F)(F)F)C(F)(F)F)cc2Br)c1F [Compound I-51, N-(2,6-dibromide-4-heptafluoroisopropylphenyl)-2-fluoro-3-(N-methyl-2,2-difluoro-1,3-benzodioxole-5-carboxamido)benzamide] |  |  |  | > 90 | > 90 | mortality at 0.1 µg/mL [1, 10]: 85.7%; mortality at 0.3 µg/mL [1, 11]: 100%; mortality at 10 µg/mL [7]: > 80%; Mortality rate (%) ([5]; 1 mg/L): 75%; Mortality rate (%) ([5]; 3 mg/L): 90.5%; Mortality rate (%) ([5]; 10 mg/L): 100%
O=C(Nc1cccc(C(=O)Nc2ccc(C(F)(C(F)(F)F)C(F)(F)F)cc2)c1F)c1ccc2c(c1)OC(F)(F)O2 [Compound C1] | 0 | 0 | 0 |  |  | 
CN(C(=O)c1ccc2c(c1)OC(F)(F)O2)c1cccc(C(=O)Nc2c(Br)cc(C(F)(C(F)(F)F)C(F)(F)F)cc2I)c1F [Compound I-48, N-(2-bromo-6-iodo-4-perfluoroisopropylphenyl)-2-fluoro-3-(N-methyl-2,2-difluoro-1,3-benzodioxole-5-carboxamido)benzamide] |  |  |  | > 90 | > 90 | 
CN(C(=O)c1ccc2c(c1)OC(F)(F)O2)c1cccc(C(=O)Nc2c(I)cc(C(F)(C(F)(F)F)C(F)(F)F)cc2I)c1F [Compound I-44] |  |  |  | > 90 | > 90 | 
O=C(Nc1cccc(C(=O)Nc2c(Br)cc(C(F)(C(F)(F)F)C(F)(F)F)cc2Br)c1F)c1ccc2c(c1)OC(F)(F)O2 [Compound I-8] | 93.3 | 100 | 100 | > 90 | > 90 | mortality at 0.1 µg/mL [1, 10]: 100%; mortality at 0.3 µg/mL [1, 11]: 100%; Mortality rate (%) ([3]; 0.2 mg/L): 83.3%; Mortality rate (%) ([3]; 1 mg/L): 91.7%; mortality at 10 µg/mL [7]: > 80%; Mortality rate (%) ([4]; 30 g/ha): 83%; Mortality rate (%) ([4]; 45 g/ha): 85%
Cc1cc(C(F)(C(F)(F)F)C(F)(F)F)cc(C)c1NC(=O)c1cccc(NC(=O)c2ccc3c(c2)OC(F)(F)O3)c1 [KC1] | 0 | 0 | 0 |  |  | mortality at 0.1 µg/mL ([1]; 72 h): 0%; mortality at 0.3 µg/mL ([1]; 72 h, read-out: Mortality rate (%) 0.3 mg/L): 0%; mortality rates against Spodoptera litura [8]: ≥ 70%; mortality rates against Plutella xylostella [9]: ≥ 70%
CN(C(=O)c1ccc2c(c1)OC(F)(F)O2)c1cccc(C(=O)Nc2c(Br)cc(C(F)(C(F)(F)F)C(F)(F)F)cc2C(F)(F)F)c1F [Compound I-45, N-(2-bromo-4-heptafluoroisopropyl-6-trifluoromethylphenyl)-2-fluoro-3-(N-methyl-2,2-difluoro-1,3-benzodioxole-5-carboxamido) Benzamide] |  |  |  | > 90 | > 90 | 
O=C(Nc1cccc(C(=O)Nc2c(Br)cc(C(F)(C(F)(F)F)C(F)(F)F)cc2C(F)(F)F)c1F)c1ccc2c(c1)OC(F)(F)O2 [Compound I-2] |  |  |  | > 90 | > 90 | 
